Test results taken from US5866573A, “Pyrazinone thrombin inhibitors” (Merck & Co., Inc., priority 1997, dated 1999).

Assays:
human α-thrombin = human α-thrombin (Homo sapiens, UniProt P00734); assay: In vitro assay for determining proteinase inhibition: human α-thrombin; assay type: biochemical; details: inhibitory activity against human thrombin, class symbols of Tables 1-3; 25° C., pH 7.4
Experimental: Assays of human α-thrombin and human trypsin were performed by the methods substantially as described in Thrombosis Research, Issue No. 70, page 173 (1993) by S. D. Lewis et al.
The assays were carried out at 25° C. in 0.05M TRIS buffer pH 7.4, 0.15M NaCl, 0.1% PEG. Trypsin assays also contained 1 mM CaCl2. In assays wherein rates of hydrolysis of a p-nitroanilide (pna) substrate were determined, a Thermomax 96-well plate reader was used was used to measure (at 405 nm) the time dependent appearance of p-nitroaniline. sar-PR-pna was used to assay human α-thrombin (Km =125 μM) and bovine trypsin (Km =125 μM). p-Nitroanilide substrate concentration was determined from measurements of absorbance at 342 nm using an extinction coefficient of 8270 cm^-1 M^-1.
In certain studies with potent inhibitors (Ki <10 nM) where the degree of inhibition of thrombin was high, a more sensitive activity assay was employed. In this assay the rate of thrombin catalyzed hydrolysis of the fluorogenic substrate Z-GPR-afc (Km =27 μM) was determined from the increase in fluorescence at 500 nm (excitation at 400 nm) associated with production of 7-amino-4-trifluoromethyl coumarin. Concentrations of stock solutions of Z-GPR-afc were determined from measurements of absorbance at 380 nm of the 7-amino-4-trifluoromethyl coumarin produced upon complete hydrolysis of an aliquot of the stock solution by thrombin.
Activity assays were performed by diluting a stock solution of substrate at least tenfold to a final concentration ≤0.1 Km into a solution containing enzyme or enzyme equilibrated with inhibitor. Times required to achieve equilibration between enzyme and inhibitor were determined in control experiments. Initial velocities of product formation in the absence (Vo) or presence of inhibitor (Vi) were measured. […]

thrombotic occlusion = assay: In vivo rat ferric chloride assay to measure thrombotic occlusions; design: species or system Male Sprague-Dawley rats; details: 10 μg/kg/min i.v. infusion from 60 min before 35% FeCl3 and 90 min after, 6 rats
Experimental: Studies of 3 (2-Phenylethylarnino)-6-methyl-1-(2-amino-6-following rat ferric chloride assay substantially as described in Thrombosis Research, No. 60, page 269(1990) by Kurtz et al were used to determine in vivo activity of the thrombin inhibitors of the invention. Male Sprague-Dawley rats (b)ody weights 200-350 grams) were anesthetized with dial-urethane solution (0.1 ml/100 gm body weight i.p.), and a lateral tail vein was cannulated with a 23 gauge needle connected to a 12 inch length of PE50 tubing. The tubing was attached to a 3-way valve by a tubing adapter. Saline (control) or test compound, as appropriate, was administered via the tail vein catheter. A tracheostomy was performed with a 0.75 inch length of PE205 tubing. The right carotid artery is exposed and a 1.3 mm diameter Doppler flow probe was placed on the vessel. Body temperature was maintained at 37° C. using a heat lamp.
6 rats were randomized to continuous intravenous infusions of saline or test compound administered via the tail vein. Test compound was administered at a rate of 10 μg/kg/min. Treatment infusions were initiated 60 min before the placement of a 3 mm square piece of Whatman No. 1 filter paper saturated with 35% FeCl3 onto the exposed carotid artery distal to the flow probe. […] Time to occlusion was defined as the time from application of FeCl3 to thrombotic occlusion of the vessel.

| Ki (human α-thrombin) | Compound | efficacy in rat ferric chloride assay (thrombotic occlusion) | rats showing evidence of thrombotic occlusion (thrombotic occlusion) |
| --- | --- | --- | --- |
| < 1 nM | CCNC(=O)COc1ccccc1CNC(=O)Cn1c(C)cnc(NCCc2ccccc2)c1=O [H, NHC2 H5] | – | – |
| ≥ 1 nM | Cc1nc(N)ccc1CNC(=O)Cn1c(C)cnc(NC(C)(C)Cc2ccccc2)c1=O [PhCH2 C(CH3)2] | – | – |
| ≥ 1 nM | CCNC(=O)COc1ccc(Cl)cc1CNC(=O)Cn1c(C)cnc(NC(C)(C)C)c1=O [t-C4 H9] | – | – |
| – | Cc1nc(N)ccc1CNC(=O)Cn1c(C)cnc(NCCc2ccccc2)c1=O [test compound] | fully efficacious | None of the rats treated with the test compound showed evidence of thrombotic occlusion |
